Source: ChEMBL document CHEMBL1201862, “PubChem BioAssay data set” (2004)
pIC50: −log10 of the molar value. Activity calls are given as the source filed them.

Tests used:
X-box-binding protein 1 = X-box-binding protein 1 (Homo sapiens, UniProt P17861); type: functional, Cricetulus griseus;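 also: confirmatory dose-response counter-screen serving a CHOP assay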
[1] = target: T1, Replicative DNA helicase DnaB (Mycobacterium tuberculosis, UniProt P9WMR3); experiment: DnaB intein splicing inhibitors, dose response, biochemical, cell-free fluorescence (AID 449749); type: functional
T1 sequence (P9WMR3 whole entry): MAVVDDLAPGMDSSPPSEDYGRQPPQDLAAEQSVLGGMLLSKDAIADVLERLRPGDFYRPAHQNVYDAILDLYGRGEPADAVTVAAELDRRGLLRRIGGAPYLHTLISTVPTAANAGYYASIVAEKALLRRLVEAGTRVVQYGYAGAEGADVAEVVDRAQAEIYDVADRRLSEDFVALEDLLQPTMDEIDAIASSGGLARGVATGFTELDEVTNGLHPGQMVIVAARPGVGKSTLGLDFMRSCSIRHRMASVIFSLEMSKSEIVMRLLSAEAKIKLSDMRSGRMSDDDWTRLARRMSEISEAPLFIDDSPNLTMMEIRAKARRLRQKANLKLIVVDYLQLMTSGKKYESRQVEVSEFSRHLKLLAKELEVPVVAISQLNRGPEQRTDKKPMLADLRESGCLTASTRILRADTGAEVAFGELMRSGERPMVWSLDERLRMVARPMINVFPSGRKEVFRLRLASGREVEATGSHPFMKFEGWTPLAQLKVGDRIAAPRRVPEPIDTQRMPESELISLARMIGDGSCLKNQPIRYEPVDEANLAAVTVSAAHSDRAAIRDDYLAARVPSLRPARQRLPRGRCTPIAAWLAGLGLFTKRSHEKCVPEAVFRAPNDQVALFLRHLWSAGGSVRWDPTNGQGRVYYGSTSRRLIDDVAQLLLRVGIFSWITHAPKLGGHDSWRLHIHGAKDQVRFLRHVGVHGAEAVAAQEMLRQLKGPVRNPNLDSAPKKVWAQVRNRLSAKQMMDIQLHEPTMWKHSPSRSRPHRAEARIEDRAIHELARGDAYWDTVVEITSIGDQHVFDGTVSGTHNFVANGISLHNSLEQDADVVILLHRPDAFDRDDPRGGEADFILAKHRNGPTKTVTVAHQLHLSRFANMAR

Protein RecA = target: T2, Protein RecA (Mycobacterium tuberculosis, UniProt P9WHJ3); experiment: Fluorescence Cell-Free Homogeneous Dose Retest to Identify Inhibitors of RecA-Intein Splicing Activity. [Related pubchem assays (depositor defined):AID2097, AID2223, AID489010, AID492950]; type: functional
T2 sequence (P9WHJ3 whole entry): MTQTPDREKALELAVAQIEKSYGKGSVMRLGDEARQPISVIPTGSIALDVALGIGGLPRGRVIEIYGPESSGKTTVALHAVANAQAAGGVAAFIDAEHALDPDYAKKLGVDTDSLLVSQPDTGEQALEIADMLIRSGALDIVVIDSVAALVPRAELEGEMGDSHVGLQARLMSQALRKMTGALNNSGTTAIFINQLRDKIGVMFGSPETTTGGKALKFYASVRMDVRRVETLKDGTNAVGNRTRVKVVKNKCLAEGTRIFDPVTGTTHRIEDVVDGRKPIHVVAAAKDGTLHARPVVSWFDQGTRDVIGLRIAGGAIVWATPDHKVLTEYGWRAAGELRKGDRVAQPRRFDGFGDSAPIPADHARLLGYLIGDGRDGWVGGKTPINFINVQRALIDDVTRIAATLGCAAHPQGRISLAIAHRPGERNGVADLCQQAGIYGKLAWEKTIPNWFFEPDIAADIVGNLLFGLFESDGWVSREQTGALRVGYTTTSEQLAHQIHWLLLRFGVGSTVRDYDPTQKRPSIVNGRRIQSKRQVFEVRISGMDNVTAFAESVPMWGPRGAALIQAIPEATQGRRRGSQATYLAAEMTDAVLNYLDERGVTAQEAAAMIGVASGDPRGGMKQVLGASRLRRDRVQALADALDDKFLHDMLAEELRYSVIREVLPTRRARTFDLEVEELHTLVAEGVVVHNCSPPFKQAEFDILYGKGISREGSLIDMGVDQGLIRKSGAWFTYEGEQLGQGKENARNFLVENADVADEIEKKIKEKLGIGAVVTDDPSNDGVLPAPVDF

[2] = target: T3, Delta-type opioid receptor (Homo sapiens, UniProt P41143); experiment: HTS Image-Based Screen for Antagonists of the DOR Receptor. [Related pubchem assays (depositor defined):AID1777, AID1785, AID1786, AID2133]; type: functional
T3 sequence (P41143 whole entry): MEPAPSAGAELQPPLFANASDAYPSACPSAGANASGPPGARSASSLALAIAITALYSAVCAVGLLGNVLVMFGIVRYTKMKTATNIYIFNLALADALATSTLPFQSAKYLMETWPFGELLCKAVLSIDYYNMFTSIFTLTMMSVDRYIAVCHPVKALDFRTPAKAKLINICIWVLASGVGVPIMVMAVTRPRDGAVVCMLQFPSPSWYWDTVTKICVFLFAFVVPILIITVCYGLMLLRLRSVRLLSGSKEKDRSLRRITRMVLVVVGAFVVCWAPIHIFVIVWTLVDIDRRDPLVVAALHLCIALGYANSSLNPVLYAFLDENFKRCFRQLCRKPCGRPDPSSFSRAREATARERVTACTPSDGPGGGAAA

[3] = luciferase reporter signal suppression in cells – H4 neuroglioma cells, luminescence, dose response (AID 1990); type: functional, cell-based
HEK293 [4] = experiment: inhibition of NOD1-driven NF-kB reporter – cell-based, luminescence, uHTS, primary screen (AID 1578); type: functional; conditions: Homo sapiens
Mu-type opioid receptor = Mu-type opioid receptor (Homo sapiens, UniProt P35372); experiment: HTS Image-Based Screen for Agonists of the MOR Receptor. [Related pubchem assays (depositor defined):AID1777, AID1785, AID1786, AID2133]; type: functional;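 also: imaging of beta-arrestin GFP recruitment into spots after receptor activation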
Sequence of Mu-type opioid receptor (P35372 whole entry): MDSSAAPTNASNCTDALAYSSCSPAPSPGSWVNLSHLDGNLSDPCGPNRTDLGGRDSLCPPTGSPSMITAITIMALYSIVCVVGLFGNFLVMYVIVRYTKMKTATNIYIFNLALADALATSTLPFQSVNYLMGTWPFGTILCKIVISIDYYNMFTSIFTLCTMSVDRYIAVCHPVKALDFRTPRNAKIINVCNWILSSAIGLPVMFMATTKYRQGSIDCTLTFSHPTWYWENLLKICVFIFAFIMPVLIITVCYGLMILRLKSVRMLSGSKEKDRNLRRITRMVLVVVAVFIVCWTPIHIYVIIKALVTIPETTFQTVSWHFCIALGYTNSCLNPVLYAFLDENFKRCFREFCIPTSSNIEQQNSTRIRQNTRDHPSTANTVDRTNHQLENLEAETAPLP

[5] = target: T3, Delta-type opioid receptor; experiment: HTS Image-Based Screen for Agonists of the DOR Receptor. [Related pubchem assays (depositor defined):AID1777, AID1786, AID2133]; type: functional
BJ [6] = experiment: BJ-TERT fibroblast viability loss – cell-based, RAS-independent, luminescence, dose response (AID 1933); type: functional; conditions: Homo sapiens
HEK293 [7] = experiment: cells; type: functional, cell-based; conditions: Homo sapiens
[8] = Luminescence Cell-Based Dose Response HTS to Identify Inhibitors of 5'UTR Stem-Loop Driven Prion Protein mRNA Translation in H4 Neuroglioblastoma Cells. [Related pubchem assays: 1827 (Project Summary), 1813 (Primary HTS)]; type: functional
[9] = alpha-synuclein stem-loop luciferase translation blockers – H4 neuroglioma cells, luminescence, confirmation (AID 1988); type: functional, cell-based
BJ [10] = experiment: cells; type: functional, cell-based; conditions: Homo sapiens
HEK293 [11] = experiment: cells; type: functional, cell-based; conditions: Homo sapiens; remark: listed apart in the source
HEK293 [12] = experiment: NOD2 signaling inhibitors in MDP-stimulated cells, cell-based, uHTS, luminescence (AID 2001); type: functional; conditions: Homo sapiens
[13] = target: T4, Kappa-type opioid receptor (Homo sapiens, UniProt P41145); type: functional
T4 sequence (P41145 whole entry): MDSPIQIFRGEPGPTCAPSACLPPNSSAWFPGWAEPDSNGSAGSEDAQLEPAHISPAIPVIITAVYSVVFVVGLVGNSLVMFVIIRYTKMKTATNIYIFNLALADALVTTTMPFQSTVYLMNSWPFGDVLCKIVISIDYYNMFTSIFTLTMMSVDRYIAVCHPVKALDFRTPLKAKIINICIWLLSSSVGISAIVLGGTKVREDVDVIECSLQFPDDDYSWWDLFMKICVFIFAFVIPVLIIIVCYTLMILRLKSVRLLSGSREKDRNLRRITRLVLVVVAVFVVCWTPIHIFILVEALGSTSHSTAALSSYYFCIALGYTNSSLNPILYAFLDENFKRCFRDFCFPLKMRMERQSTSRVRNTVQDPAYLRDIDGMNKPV

Beta-galactosidase = Beta-galactosidase (Escherichia coli, UniProt Q8VNN2); type: functional
Sequence of Beta-galactosidase (Q8VNN2 whole entry): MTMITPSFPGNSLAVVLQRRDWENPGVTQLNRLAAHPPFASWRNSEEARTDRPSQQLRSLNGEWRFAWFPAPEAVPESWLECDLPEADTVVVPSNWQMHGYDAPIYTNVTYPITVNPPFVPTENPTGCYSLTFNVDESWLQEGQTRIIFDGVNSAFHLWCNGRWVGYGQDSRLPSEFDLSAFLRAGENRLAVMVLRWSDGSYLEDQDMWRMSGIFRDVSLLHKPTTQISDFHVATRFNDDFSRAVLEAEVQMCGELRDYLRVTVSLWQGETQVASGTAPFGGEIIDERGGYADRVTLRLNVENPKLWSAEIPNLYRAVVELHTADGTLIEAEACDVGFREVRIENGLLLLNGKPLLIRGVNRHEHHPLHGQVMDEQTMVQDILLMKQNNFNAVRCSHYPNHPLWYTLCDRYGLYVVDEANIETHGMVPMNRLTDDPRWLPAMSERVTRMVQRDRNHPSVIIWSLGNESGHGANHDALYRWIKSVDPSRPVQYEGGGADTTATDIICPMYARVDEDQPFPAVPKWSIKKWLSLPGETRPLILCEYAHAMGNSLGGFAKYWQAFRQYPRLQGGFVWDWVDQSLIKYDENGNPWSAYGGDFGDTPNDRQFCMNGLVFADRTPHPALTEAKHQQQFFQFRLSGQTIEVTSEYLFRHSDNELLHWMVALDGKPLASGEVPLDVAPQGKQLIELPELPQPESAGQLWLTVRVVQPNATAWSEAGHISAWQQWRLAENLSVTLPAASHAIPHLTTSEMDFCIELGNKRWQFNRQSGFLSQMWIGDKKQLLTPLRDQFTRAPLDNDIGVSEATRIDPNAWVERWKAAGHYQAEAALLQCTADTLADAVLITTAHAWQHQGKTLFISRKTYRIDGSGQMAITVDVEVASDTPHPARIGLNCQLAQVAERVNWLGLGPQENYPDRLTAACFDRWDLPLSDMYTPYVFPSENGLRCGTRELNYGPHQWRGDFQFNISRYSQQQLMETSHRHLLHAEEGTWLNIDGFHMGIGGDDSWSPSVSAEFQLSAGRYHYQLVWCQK

BJ [14] = experiment: BJ-TERT-LT-ST fibroblast viability loss – cell-based, RAS-independent, luminescence, dose response (AID 1935); type: functional; conditions: Homo sapiens;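 also: BJ fibroblasts immortalized with TERT plus LT and ST oncogenes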
[15] = target: T4, Kappa-type opioid receptor; type: functional; remark: listed apart in the source
[16] = DRD fibroblast viability loss – cell-based, non-viral oncogenic, luminescence, dose response (AID 1934); type: functional; conditions: Homo sapiens
[17] = target: T5, Microphthalmia-associated transcription factor (Homo sapiens, UniProt O75030); experiment: reducers of TRPM1 reporter luminescence, concentration series – cell-based, SK-MEL-5, cherry-picked, set 3, MITF inhibitor project, dose response (AID 493073); type: functional;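 also: SK-MEL-5 melanoma cells with luciferase driven by the MITF target TRPM1 promoter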
T5 sequence (O75030 whole entry): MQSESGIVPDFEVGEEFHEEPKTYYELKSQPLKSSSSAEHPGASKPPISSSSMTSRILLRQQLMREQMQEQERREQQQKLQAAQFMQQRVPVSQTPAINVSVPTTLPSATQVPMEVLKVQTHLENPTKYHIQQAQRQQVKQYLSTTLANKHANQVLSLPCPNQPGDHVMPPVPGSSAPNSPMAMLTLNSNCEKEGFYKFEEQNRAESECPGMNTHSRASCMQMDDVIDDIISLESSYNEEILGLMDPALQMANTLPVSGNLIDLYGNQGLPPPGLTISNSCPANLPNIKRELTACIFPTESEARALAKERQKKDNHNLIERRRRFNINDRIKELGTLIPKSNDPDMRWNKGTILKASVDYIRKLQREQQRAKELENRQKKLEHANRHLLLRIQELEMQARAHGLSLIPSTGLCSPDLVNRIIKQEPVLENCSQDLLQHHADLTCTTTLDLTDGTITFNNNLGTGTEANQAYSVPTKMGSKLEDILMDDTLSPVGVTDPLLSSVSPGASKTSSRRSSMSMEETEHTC

[18] = reduction of Shn3 3'UTR-driven luciferase in osteoblasts – cell-based, Clone20 osteoblasts, firefly luciferase, cherry-picked, dose response (AID 624132); type: functional;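 also: firefly luciferase luminescence from reporter carrying the Shn3 3'UTR in osteoblasts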
[19] = loss of viability in HepG2 cells – cell-based, CellTiter-Glo, cherry-picked, cytotoxicity control for Shn3 inhibitor project, dose response (AID 624134); type: functional
[20] = non-specific 3'UTR reporter inhibition in Clone20-Shn3RL – cell-based, Renilla luciferase, cherry-picked, counter-screen for Shn3 inhibitor project, dose response (AID 624133); type: functional
[21] = Fluorescence-based cell-based high throughput dose response assay for inhibitors of the interaction of nucleotide-binding oligomerization domain containing 2 (NOD2) and the receptor-interacting serine-threonine kinase 2 (RIPK2).; type: functional; conditions: Homo sapiens
Beta Lactamase = Beta Lactamase (Pseudomonas aeruginosa, UniProt Q932Y6); experiment: BLA reporter interference, concentration series – BLA reporter cells, FRET fluorescence, artefact control for NOD2-RIPK2 interaction inhibitor project, dose response (AID 651552); type: functional, cell-based
Sequence of Beta Lactamase (Q932Y6 whole entry): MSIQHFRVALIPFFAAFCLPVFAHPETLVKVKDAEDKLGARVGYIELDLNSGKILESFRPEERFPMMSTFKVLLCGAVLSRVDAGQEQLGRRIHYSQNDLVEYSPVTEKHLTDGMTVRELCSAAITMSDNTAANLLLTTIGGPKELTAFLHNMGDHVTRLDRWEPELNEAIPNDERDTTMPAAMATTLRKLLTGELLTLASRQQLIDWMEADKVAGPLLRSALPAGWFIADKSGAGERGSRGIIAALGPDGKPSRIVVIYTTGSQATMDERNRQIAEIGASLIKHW

Paired box protein Pax-8 = Paired box protein Pax-8 (Homo sapiens, UniProt Q06710); experiment: PAX8 transcriptional activity inhibition in RMG-I – RMG-I cells, luciferase, cherry-pick, dose response (AID 687027); type: functional, cell-based;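 also: luciferase reporter driven by Pax8 target thyroperoxidase promoter measured by SteadyGlo luminescence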
Sequence of Paired box protein Pax-8 (Q06710 whole entry): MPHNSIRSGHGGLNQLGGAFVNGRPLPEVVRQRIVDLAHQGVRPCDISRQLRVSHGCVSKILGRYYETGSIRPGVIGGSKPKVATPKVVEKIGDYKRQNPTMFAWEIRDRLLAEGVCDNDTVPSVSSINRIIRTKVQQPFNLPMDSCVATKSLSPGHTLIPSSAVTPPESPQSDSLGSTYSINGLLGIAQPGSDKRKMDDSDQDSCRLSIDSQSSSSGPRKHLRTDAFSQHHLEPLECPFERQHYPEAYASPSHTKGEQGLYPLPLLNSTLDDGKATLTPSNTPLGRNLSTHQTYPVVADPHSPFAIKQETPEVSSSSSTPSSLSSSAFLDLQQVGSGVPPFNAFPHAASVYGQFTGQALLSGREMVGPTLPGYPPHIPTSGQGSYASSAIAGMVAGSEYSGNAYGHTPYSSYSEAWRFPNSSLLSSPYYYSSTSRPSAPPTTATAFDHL

[22] = target: Eukaryotic translation initiation factor 4H (Homo sapiens, UniProt Q15056); experiment: eIF4H binding inhibition – biochemical, uHTS, fluorescence polarization, translation initiation inhibitor project, primary screen (AID 2012)
[23] = target: Polyadenylate-binding protein 1 (Homo sapiens, UniProt P11940); experiment: blockers of PABP interaction with poly(A) – biochemical, fluorescence polarization, […] (AID 2014)
Sequence of Polyadenylate-binding protein 1 (P11940 whole entry): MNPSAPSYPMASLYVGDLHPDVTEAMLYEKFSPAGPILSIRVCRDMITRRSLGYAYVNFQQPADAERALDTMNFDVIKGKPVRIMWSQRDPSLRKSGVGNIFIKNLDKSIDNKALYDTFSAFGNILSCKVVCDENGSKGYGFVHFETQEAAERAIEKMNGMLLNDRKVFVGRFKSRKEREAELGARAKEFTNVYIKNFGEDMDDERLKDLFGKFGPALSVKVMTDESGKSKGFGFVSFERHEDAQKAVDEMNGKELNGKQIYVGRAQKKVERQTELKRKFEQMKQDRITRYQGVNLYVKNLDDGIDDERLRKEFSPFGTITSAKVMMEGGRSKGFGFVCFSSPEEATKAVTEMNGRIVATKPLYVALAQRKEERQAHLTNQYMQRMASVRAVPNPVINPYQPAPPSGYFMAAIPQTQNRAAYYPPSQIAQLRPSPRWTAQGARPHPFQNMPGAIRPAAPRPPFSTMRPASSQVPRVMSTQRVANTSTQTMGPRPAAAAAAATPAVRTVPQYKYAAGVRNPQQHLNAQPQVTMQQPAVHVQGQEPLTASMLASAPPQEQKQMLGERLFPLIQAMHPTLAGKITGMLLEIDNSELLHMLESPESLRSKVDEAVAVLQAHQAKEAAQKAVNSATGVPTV

[24] = target: Eukaryotic translation initiation factor 4E (Mus musculus, UniProt P63073); experiment: blockers of eIF4G binding by eIF4E – biochemical, TR-FRET, dose response (AID 855); type: functional;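 also: potency for disrupting eIF4E binding to eIF4GI seen as loss of FRET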
Sequence of Eukaryotic translation initiation factor 4E (P63073 whole entry): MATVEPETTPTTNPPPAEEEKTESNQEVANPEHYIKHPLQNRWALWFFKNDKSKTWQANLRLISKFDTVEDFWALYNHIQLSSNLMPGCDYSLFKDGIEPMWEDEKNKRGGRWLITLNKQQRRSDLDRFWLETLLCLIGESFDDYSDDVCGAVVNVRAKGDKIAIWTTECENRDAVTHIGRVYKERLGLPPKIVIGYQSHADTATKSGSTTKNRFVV

Sequence of X-box-binding protein 1 (P17861 whole entry): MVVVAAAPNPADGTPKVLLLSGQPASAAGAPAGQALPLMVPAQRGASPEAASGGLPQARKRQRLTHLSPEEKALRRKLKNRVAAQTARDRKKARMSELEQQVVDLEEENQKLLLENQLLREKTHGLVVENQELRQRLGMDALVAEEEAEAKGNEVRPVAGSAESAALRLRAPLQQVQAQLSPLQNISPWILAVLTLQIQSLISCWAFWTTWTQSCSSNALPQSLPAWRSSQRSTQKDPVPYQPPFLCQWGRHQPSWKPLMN

What does the source list for Cc1cc(-c2[nH]nc3c2C(c2ccc(Cl)cc2)C(C#N)=C(N)O3)c(C)s1 (stereo not given)?
Absolute IC50 (XBP1) (X-box-binding protein 1): 10 µM; AC50 [1]: 3.07 µM (active); EC50 (Protein RecA): 3.42 µM (active)

With COCCN(CC(=O)NC1CCCCC1)C(=O)/C=C/C(=O)c1ccc(OC)cc1O as the compound, how does the IC50 [2] read?
The IC50 was > 32 µM (inactive).

What about the EC50 [3] of the same compound?
The EC50 was 8.52 µM (active).

And the EC50 (HEK293 [4])?
The EC50 was > 20 µM (inactive).

And the EC50 (Mu-type opioid receptor)?
The EC50 was > 32 µM (inactive).

What about the EC50 [5] of the same compound?
The EC50 was > 32 µM (inactive).

And the EC50 (BJ [6])?
The EC50 was 2.71 µM (inconclusive).

What about the IC50 (HEK293 [7]) of the same compound?
Its IC50 is 16.6 µM (active).

And the EC50 [8]?
The EC50 was 9.57 µM (active).

And the EC50 [9]?
Its EC50 is > 120 µM (not active).

And the EC50 (BJ [10])?
Its EC50 is 9.79 µM (inconclusive).

And the IC50 (HEK293 [11])?
Its IC50 is > 20 µM (inactive).

What about the IC50 (HEK293 [12]) of the same compound?
The IC50 was > 20 µM (inactive).

And the IC50 [13]?
The IC50 was 7.13 µM (active).

And the EC50 (Beta-galactosidase)?
The EC50 was > 31.5 µM (inactive).

What about the EC50 (BJ [14]) of the same compound?
The EC50 was 1.62 µM (inconclusive).

What about the pIC50 [15] of the same compound?
The pIC50 was 4.79.

What about the EC50 [16] of the same compound?
The EC50 was 2.74 µM (inconclusive).

And the AC50 [17]?
Its AC50 is 5.48 µM (active).

What about the AC50 [18] of the same compound?
Its AC50 is 2.58 µM (active).

And the AC50 [19]?
Its AC50 is 13.7 µM (active).

What about the AC50 [20] of the same compound?
The AC50 was 9.9 µM (active).

What about the IC50 [21] of the same compound?
The IC50 was 3.11 µM (active).

What about the IC50 (Beta Lactamase) of the same compound?
Its IC50 is 17.8 µM (inactive).

What about the AC50 (Paired box protein Pax-8) of the same compound?
Its AC50 is 5.38 µM (active).

Which results are given for C[N+]1(CCOS(=O)C23CC4CC(CC(C4)C2)C3)CCOCC1 (stereo not given)?
IC50 [22]: > 100 µM (inactive); IC50 [23]: 11.8 µM (active)

Which IC50 [24] does the source give for CCn1nnnc1SCC(=O)Nc1cccc(NC(C)=O)c1 here?
Its IC50 is > 64 µM (inactive).
